Results as given in the NIST ThermoML archive (doi:10.1021/je030127e).
± gives the expanded uncertainty stated by the source.

Key:
[1] = 101.3 kPa, Liquid; for viscosity: Capillary tube (Ostwald / Ubbelohde) method
[2] = xn = mol fraction of the nth substance listed; details: 101.3 kPa, Liquid, x1 = 1; for viscosity: Capillary tube (Ostwald / Ubbelohde) method

| viscosity ([1]; 293.15 K) [mPa·s] | speed of sound ([1]; 298.15 K) [m/s] | viscosity ([1]; 298.15 K) [mPa·s] | viscosity ([1]; 303.15 K) [mPa·s] | viscosity ([2]; 293.15 K) [mPa·s] | viscosity ([2]; 298.15 K) [mPa·s] | speed of sound ([2]; 298.15 K) [m/s] | viscosity ([2]; 303.15 K) [mPa·s] | SMILES |
| --- | --- | --- | --- | --- | --- | --- | --- | --- |
| 0.525 ± 0.005 | 1251.6 ± 1.1 | 0.496 ± 0.005 | 0.467 ± 0.005 |  |  |  |  | CCCCN [1-butanamine] |
| 1.708 ± 0.013 | 1344.5 ± 1.1 | 1.544 ± 0.012 | 1.404 ± 0.011 |  |  |  |  | COCCO [2-methoxyethan-1-ol] |
|  |  |  |  | 1.708 ± 0.013 | 1.544 ± 0.012 | 1344.5 ± 1.1 | 1.404 ± 0.011 | COCCO [2-methoxyethan-1-ol] + CCCCN |
